Assay results: BindingDB's records for doi:10.7270/Q2M043TQ (Nmmlsc, 2010)

Biological target: T1, Regulator of G-protein signaling 8 (Homo sapiens, UniProt P57771)
T1 sequence (P57771 whole entry): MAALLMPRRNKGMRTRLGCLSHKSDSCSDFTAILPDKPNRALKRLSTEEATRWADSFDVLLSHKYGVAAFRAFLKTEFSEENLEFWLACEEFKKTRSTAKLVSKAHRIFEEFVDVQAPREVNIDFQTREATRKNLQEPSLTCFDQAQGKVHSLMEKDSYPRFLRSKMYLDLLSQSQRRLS
Test: small molecules altering RGS8 binding of Galphao – biochemical, multiplex bead flow cytometry, SAR compounds, SAR follow-up (AID 2307)

Row | EC50 [µM] | EC50 (inactive by the depositor's call) [µM] | Compound
1 | 0.021 | – | CN1CCN(C2=C(Cl)C(=O)C(c3cnc(N4CCCCC4)s3)=C(Cl)C2=O)CC1
2 | 3.18 | – | Cc1cccc(N2CCN(C(=O)COc3nsc4nc(C)cc(C)c34)CC2C)c1 (configuration not stated)
3 | > 30 | – | Cc1cccc(N2CCN(C(=O)Cn3ccc4nc(C)cc(C)c4c3=O)CC2C)c1 (configuration not stated) [2,4-dimethyl-6-[2-[3-methyl-4-(3-methylphenyl)piperazin-1-yl]-2-oxidanylidene-ethyl]-1,6-naphthyridin-5-one]
4 | > 30 | – | Cc1cc(C)c2c(=O)n(CC(=O)N3CCN(c4ccccc4)CC3)ccc2n1 [2,4-dimethyl-6-[2-oxidanylidene-2-(4-phenylpiperazin-1-yl)ethyl]-1,6-naphthyridin-5-one]
5 | > 30 | – | Cc1cc(C)c2c(n1)CCN(CC(=O)N1CCN(c3ccccc3)CC1)C2=O [2,4-dimethyl-6-[2-oxidanylidene-2-(4-phenylpiperazin-1-yl)ethyl]-7,8-dihydro-1,6-naphthyridin-5-one]
6 | 0.029 | – | O=c1c2ccccc2sn1-c1ccc(S(=O)(=O)N2CCCC2)cc1 [2-(4-pyrrolidin-1-ylsulfonylphenyl)-1,2-benzothiazol-3-one]
7 | 0.55 | – | Cc1cccc(N2CCN(C(=O)Cn3sc4nc(C)cc(C)c4c3=O)CC2C)c1 (configuration not stated) [2-[2-keto-2-[3-methyl-4-(m-tolyl)piperazino]ethyl]-4,6-dimethyl-isothiazolo[5,4-b]pyridin-3-one]
8 | > 30 | – | Cc1cccc(N2CCN(C(=O)COc3noc4nc(C)cc(C)c34)CC2C)c1 (configuration not stated) [2-[(4,6-dimethyl-[1,2]oxazolo[5,4-b]pyridin-3-yl)oxy]-1-[3-methyl-4-(3-methylphenyl)piperazin-1-yl]ethanone]
9 | > 30 | – | O=c1c2ccccc2sn1-c1ccccc1 [2-phenyl-1,2-benzothiazol-3-one]
10 | 0.218 | – | Cc1[nH]n(-c2ccccc2)c(=S)c1/C=N/c1cccc([N+](=O)[O-])c1 [(4E)-5-methyl-4-[(3-nitroanilino)methylene]-2-phenyl-2-pyrazoline-3-thione]
11 | > 30 | – | Cc1cccc(N2CCN(C(=O)CN3CCc4nc(C)cc(C)c4C3=O)CC2C)c1 (configuration not stated) [KUC103675N]

More lines, now with the values behind:

Row | Compound | EC50 [µM] | EC50 (inactive by the depositor's call) [µM]
12 | CCN=c1scc(C)n1N=Cc1ccc(O)c(O)c1O | 0.573 | –
13 | CCN(CC)S(=O)(=O)c1cccc(C(=O)NN=Cc2ccc(O)c(O)c2O)c1 | 0.411 | –
14 | Cc1[nH]n(-c2ccccc2)c(=S)c1C=NCCCN=Cc1c(C)[nH]n(-c2ccccc2)c1=S | 0.522 | –
15 | CCN(CC)S(=O)(=O)c1cccc(-c2n[nH]c(=S)n2N=Cc2ccc(C(=O)OC)cc2)c1 [4-[(E)-[3-[3-(diethylsulfamoyl)phenyl]-5-thioxo-1H-1,2,4-triazol-4-yl]iminomethyl]benzoic acid methyl ester] | 3.13 | –
16 | NS(=O)(=O)c1ccc(N=NCc2ccc(O)c(O)c2O)c([N+](=O)[O-])c1 [4-[[(E)-(2,3-dihydroxy-4-oxo-1-cyclohexa-2,5-dienylidene)methyl]hydrazo]-3-nitrobenzenesulfonamide] | 0.029 | –
17 | CN=c1scc(C)n1N=Cc1ccc(O)c(O)c1O [(4E)-2,3-dihydroxy-4-[[(4-methyl-2-methylimino-1,3-thiazol-3-yl)amino]methylidene]cyclohexa-2,5-dien-1-one] | 0.318 | –
18 | CC(=O)OCCCNc1cc(Sc2nc3ccccc3s2)c2nonc2c1[N+](=O)[O-] [MLS000521052] | 0.086 | –
19 | Cc1cc(Cl)ccc1/N=c1/ssnc1Cl [MLS000539990] | 0.127 | –
20 | O=C1C(Cl)=C(N2CCCCC2)C(=O)C(Cl)=C1c1cnc(N2CCCCC2)s1 [MLS000550549] | 0.078 | –
21 | CCC(=O)NC(c1ccc(C)cc1)c1cc([N+](=O)[O-])c2cccnc2c1O (configuration not stated) [MLS000553854] | 4.33 | –
22 | CCOc1ccccc1-c1c2cc(O)c(=O)cc-2oc2cc(O)c(O)cc12 [MLS000578271] | – | 3.68
23 | COc1ccc(C2=CC(=O)C=CC2=O)cc1 [MLS001029846] | 0.177 | –
24 | O=C(COc1ccccc1C(=O)NN=Cc1ccc(O)c(O)c1)NN=Cc1ccc(O)c(O)c1 [N''-[(Z)-(3-hydroxy-4-oxo-1-cyclohexa-2,5-dienylidene)methyl]-2-[2-[[(Z)-(3-hydroxy-4-oxo-1-cyclohexa-2,5-dienylidene)methyl]hydrazo]-2-oxoethoxy]benzohydrazide] | 0.123 | –
25 | CC1(C)OC(=O)C(=Cc2ccc(-c3ccc(S(N)(=O)=O)cc3)o2)C(=O)O1 [SMR000273939] | 0.701 | –
26 | O=C(Cc1csc(N2CCOCC2)n1)NN=Cc1ccc(O)c(O)c1O [SMR000369439] | 0.384 | –
27 | Nc1c(C(=O)NCC2CCCO2)sc2nc3c(c(-c4ccco4)c12)CC/C3=C/c1ccco1 (configuration not stated) [UNM-0000305796] | 0.489 | –
